This is an account of results in patent US11584744B2 (UNIVERSITY OF WASHINGTON, priority 2017, dated 2023).

≈ marks a conversion by molar mass, not a printed value. Where two headings read alike, the source gives them in different places.

As a reminder, the MIC is the smallest concentration in the dilution series that meets the test's criterion for growth inhibition. What is called IC50 is the point on the concentration scale where inhibition reaches its midpoint. By EC50 is commonly meant the concentration needed to bring the measured effect to its halfway point.

In data set [1] the test system is S. aureus MRSA (ATCC 43300). Briefly: MIC susceptibility testing. The data set is classed as cell-based. Particulars: Staphylococcus aureus; read-out: S. aureus MRSA (ATCC 43300) MIC. The gist of the method: (§1)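 CLSI broth microdilution in triplicate, 5×10^5 CFU/mL final, ≤0.5% DMSO; MHB for S. aureus, CA-MHB for E. coli and E. faecium, CA-MHB plus 3% laked horse blood for S. pyogenes (5% CO2).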

Data set [2] relates to S. aureus MSSA (ATCC 19636). As to the kind of experiment: MIC susceptibility testing. As to conditions: Staphylococcus aureus; read-out: S. aureus MSSA (ATCC 19636) MIC. The data set is classed as cell-based. The gist of the method:
as §1

Data set [3] concerns S. aureus VISA (ATCC 700699). Briefly: MIC susceptibility testing. The data set is classed as cell-based. Particulars: Staphylococcus aureus; read-out: S. aureus VISA (ATCC 700699) MIC. The gist of the method: as §1
In data set [4] the test system is S. pneumoniae (ATCC 49619). As to the kind of experiment: MIC susceptibility testing. The data set is classed as cell-based. As to conditions: Streptococcus pneumoniae, ATCC49619, 18 h; medium with 3% laked horse blood; read-out: S. pneumoniae (ATCC 49619) MIC.
Data set [5] has as its system E. coli MB4827 (wild-type). Briefly: MIC against permeability strains of E. coli. The data set is classed as cell-based. As to conditions: Escherichia coli, read-out: MIC MB4827 (wild-type). The method, then:
Bacterial strains. Strains with ATCC designations were either obtained directly from the American Type Culture Collection (Manassas, Va.) or were kindly provided by the University of Washington Clinical Microbiology laboratory. Escherichia coli permeability mutants (properties shown in Table 1) were provided as a gift from Dr. Katherine Young at Merck (Rahway, N.J.).
Susceptibility testing: Minimum inhibitory concentration (MIC) determinations were performed in triplicate in 96-well round bottom microtiter plates (Corning, Corning N.Y.) as described by the Clinical and Laboratory Standards Institute (CLSI). Serial two-fold dilutions of compounds were added to plates in 50 μL volumes. An additional 50 μL of media containing bacterial cells (1×10^6 CFUs/mL) was then added to each well. Maximum DMSO concentrations were 0.5%. Plates were incubated at 37° C. for at least 18 h before reading the susceptibility result by optical absorbance (OD600) using a BioTek ELx800. The lowest concentration causing ≥90% growth inhibition compared to the untreated control was recorded as the MIC (and also corresponded to the visual MIC). MICs were measured at least twice and the higher value (if different) was recorded herein.

Another data set addresses T1, MetRS (T. brucei) (Trypanosoma brucei brucei, UniProt Q38C91).
T1 sequence (Q38C91 1-773): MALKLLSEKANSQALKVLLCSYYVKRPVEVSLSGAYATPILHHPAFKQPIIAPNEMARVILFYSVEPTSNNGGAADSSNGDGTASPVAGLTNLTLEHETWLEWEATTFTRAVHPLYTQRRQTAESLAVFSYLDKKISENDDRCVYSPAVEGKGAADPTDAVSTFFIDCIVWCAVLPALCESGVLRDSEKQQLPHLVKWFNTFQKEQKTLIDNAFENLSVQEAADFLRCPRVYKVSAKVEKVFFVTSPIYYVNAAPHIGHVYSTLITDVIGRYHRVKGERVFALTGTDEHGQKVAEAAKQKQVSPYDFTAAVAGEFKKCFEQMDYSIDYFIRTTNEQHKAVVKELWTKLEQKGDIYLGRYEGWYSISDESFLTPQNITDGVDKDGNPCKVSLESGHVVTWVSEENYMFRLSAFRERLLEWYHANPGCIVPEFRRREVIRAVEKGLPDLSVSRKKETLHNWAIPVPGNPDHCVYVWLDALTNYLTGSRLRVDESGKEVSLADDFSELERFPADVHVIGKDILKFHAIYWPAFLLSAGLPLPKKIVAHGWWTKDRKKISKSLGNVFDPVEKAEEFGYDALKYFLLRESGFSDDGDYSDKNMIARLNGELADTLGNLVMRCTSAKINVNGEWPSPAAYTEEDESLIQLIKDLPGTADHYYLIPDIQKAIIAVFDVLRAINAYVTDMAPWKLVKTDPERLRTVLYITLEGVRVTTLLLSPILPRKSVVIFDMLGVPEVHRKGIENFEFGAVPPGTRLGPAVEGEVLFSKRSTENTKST
As to the kind of experiment: MetRS (T. brucei) enzyme inhibition. The data set is classed as biochemical.

In data set [6] the test system is G. lamblia (ATCC GL50803). As to the kind of experiment: G. lamblia growth inhibition. The data set is classed as cell-based. Particulars: Giardia duodenalis, read-out: (K) G. lamblia (ATCC GL50803) EC50.
In another data set the test system is Cryptosporidium. As to the kind of experiment: C. parvum infection model, NOD SCID Gamma mice, oocysts in stool by PCR. The data set is classed as in vivo, Cryptosporidium parvum. Particulars: treated 5 days. As to the method:
(§2) Several compounds of the disclosure were also evaluated in vivo in C. parvum infection model and in acute T. cruzi infection model. Immunosuppressed mice (NOD SCID Gamma) with Cryptosporidium infection were treated for 5 days with test compounds. Cryptosporidium oocysts were quantified in stool by PCR. […] In FIG. 4, gamma-IFN knockout mice were used and, similarly, treated for 5 days with the test compound 2093. […] With respect to the T. cruzi, an efficacy model was employed in which the infection was monitored using bioluminescent T. cruz. With vehicle treatment, all mice died by day 14 post-infection.

In the next data set the test system is T. cruzi. As to the kind of experiment: Acute T. cruzi infection model (bioluminescent T. cruzi). The data set is classed as in vivo, Trypanosoma cruzi. As to conditions: 50 mg/kg orally twice a day for five days. As to the method: FIG. 5 illustrates efficacy of a MetRS inhibitor in acute T. cruzi infection model. (A) Study protocol. Compounds were dosed orally with 50 mg/kg twice a day for five days, and the images were taken of day 6, 13, and 24. (B) Images and (C) graphs of the […] results.
as §2

Another data set concerns T. brucei. Briefly: T. brucei growth inhibition. The data set is classed as cell-based, Trypanosoma brucei. Particulars: read-out: (D) T. brucei EC50.
In a further data set the test system is E. coli (ATCC 25922). As to the kind of experiment: MIC susceptibility testing. The data set is classed as cell-based. Particulars: Escherichia coli, ATCC25922. The gist of the method: as §1
Data set [7] has as its system P. aeruginosa (ATCC 27853). As to the kind of experiment: MIC susceptibility testing. As to conditions: Pseudomonas aeruginosa, ATCC27853. The data set is classed as cell-based.
Data set [8] can be described thus: Protein binding to human plasma. The data set is classed as in vitro ADME.
The conditions of data set [9]: mice infected with T. brucei, 50 mg/kg PO twice-per-day for 10 days; previous publication; cited from earlier work.

On to `CCn1c(Cc2ccc(OC)cc2Cl)cn(Cc2nc3nc(Cl)ccc3[nH]2)c1=O` [Compound 2093, 1-({5-chloro-1H-imidazo[4,5-b]pyridin-2-yl}methyl)-4-[(2-chloro-4-methoxyphenyl)methyl]-3-ethyl-2,3-dihydro-1H-imidazol-2-one], for which the MIC in data set [1] was 0.313 µg/mL (≈ 0.724 µM); in [2], 0.313 µg/mL (≈ 0.724 µM); in [3] it was 0.313 µg/mL (≈ 0.724 µM); in data set [4], more than 20 µg/mL; in data set [5], more than 20 µg/mL. The molecule further returned an IC50 on MetRS (T. brucei) of less than 40 nM. The EC50 in data set [6] was 10 nM. Besides, the suppression of infection result in the data set with Cryptosporidium is on record as “over 99%”. For the same molecule, in the data set with T. cruzi, the tissue parasites entry is recorded as “dramatic suppression of tissue parasites”. The survival in the data set on T. cruzi (vehicle mice all died by day 14) was 100%.

For `COc1cc(Cl)c(-c2cccc3nc(Cc4nc5nc(Cl)ccc5[nH]4)cn23)cc1OC` [Compound 2144, 2-({5-chloro-1H-imidazo[4,5-b]pyridin-2-yl}methyl)-5-(2-chloro-4,5-dimethoxyphenyl)imidazo[1,2-a]pyridine], the MIC is 0.039 µg/mL (≈ 0.0858 µM) in data set [1]; 0.078 µg/mL (≈ 0.172 µM) in data set [2]; 0.039 µg/mL (≈ 0.0858 µM) in data set [3]; more than 20 µg/mL in data set [4]; more than 20 µg/mL in data set [5]. Further, the IC50 against MetRS (T. brucei) is less than 40 nM.

Turning to `CC(=O)NC[C@H]1CN(c2ccc(N3CCOCC3)c(F)c2)C(=O)O1` [LNZ, linezolid], the MIC amounted to 2.5 µg/mL (≈ 7.41 µM) in data set [1], 1.25 µg/mL (≈ 3.71 µM) in [2], 1.25 µg/mL (≈ 3.71 µM) in [3] and 1.25 µg/mL (≈ 3.71 µM) in data set [4].

As to `CCn1c(Cc2ccc(OC)cc2Cl)cn(Cc2nc3nc(F)ccc3[nH]2)c1=O` [Compound 2114, 4-[(2-chloro-4-methoxyphenyl)methyl]-3-ethyl-1-({5-fluoro-1H-imidazo[4,5-b]pyridin-2-yl}methyl)-2,3-dihydro-1H-imidazol-2-one], at MetRS (T. brucei), the IC50 was less than 40 nM. Besides, the EC50 in the data set on T. brucei (Trypanosoma brucei) turned out to be 1.4 nM.

As for `CCn1c(Cc2ccc(Cl)cc2Cl)cn(Cc2nc3nc(F)ccc3[nH]2)c1=O` [Compound 2062, 4-[(2,4-dichlorophenyl)methyl]-3-ethyl-1-({5-fluoro-1H-imidazo[4,5-b]pyridin-2-yl}methyl)-2,3-dihydro-1H-imidazol-2-one], the half-maximal inhibitory concentration (IC50) against MetRS (T. brucei) is less than 40 nM. In the data set on T. brucei, the EC50 is 3.48 nM.

As to `Fc1ccc2nc(NCCCN[C@@H]3CCNc4c(Cl)cc(Cl)cc43)[nH]c2n1` [Compound 1717, (4R)-6,8-dichloro—N-[3-({5-fluoro-3H-imidazo[4,5-b]pyridin-2-yl}amino)propyl]-1,2,3,4-tetrahydroquinolin-4-amine, reference compound], the MIC is more than 10 µg/mL against E. coli (ATCC 25922); more than 10 µg/mL in data set [7]; 0.156 µg/mL (≈ 0.381 µM) in [1]; 0.078 µg/mL (≈ 0.191 µM) in data set [2]; 0.156 µg/mL (≈ 0.381 µM) in [3]; more than 20 µg/mL in [4]. For the same molecule, in data set [5], the MIC is more than 20 µg/mL. Moreover, the “% binding to human plasma” value in [8] is reported as 95.4%. Moreover, in data set [9], the “effects on weight, grooming, or body condition” value is “no deleterious effects on weight, grooming, or body condition”.

`Fc1ccc2nc(NCCCNCc3cc(Cl)cc(Cl)c3)[nH]c2n1` [Compound 1614, [(3,5-dichlorophenyl)methyl][3-({5-fluoro-3H-imidazo[4,5-b]pyridin-2-yl}amino)propyl]amine]: the MIC in the data set on E. coli (ATCC 25922) was more than 10 µg/mL; in data set [7], more than 10 µg/mL; in [1], 5 µg/mL (≈ 13.6 µM); in data set [2], 2.5 µg/mL (≈ 6.79 µM); in data set [3] it was 10 µg/mL (≈ 27.2 µM); in [4], more than 10 µg/mL. Moreover, in data set [9], the “effects on weight, grooming, or body condition” value is on record as “no deleterious effects on weight, grooming, or body condition”.
